Assays:
[1] = Plasma kinetics, intravenous, beagle dogs; assay type: in vivo, female beagle dogs; details: IV 1 mg/kg
Experimental: CFMQ (HGT3711) was administered to fasted female beagle dogs by a single intravenous injection at 1.0 mg/kg, formulated in 100% PEG200 (Table 10). Blood samples were taken via jugular vein puncture prior to administration and at 0.083 (5 min), 0.25 (15 min), 0.50 (30 min), 1, 4, 8 and 24 hours post dose. Plasma concentrations of CFMQ (HGT3711) were determined by LC-MS/MS and concentrations below the limit of quantitation (1.0 ng/mL) were assigned a value of zero for pharmacokinetic analysis. Nominal dosing concentrations were used in all calculations.

NK3 (h) = molecular target: T1, NK3 (h) (Homo sapiens, UniProt P29371); test: Off-target receptor binding: NK3
T1 construct: expressed in transfected cells; host or cells: CHO or HEK 293 (not assigned per receptor)
T1 sequence (P29371 1-465): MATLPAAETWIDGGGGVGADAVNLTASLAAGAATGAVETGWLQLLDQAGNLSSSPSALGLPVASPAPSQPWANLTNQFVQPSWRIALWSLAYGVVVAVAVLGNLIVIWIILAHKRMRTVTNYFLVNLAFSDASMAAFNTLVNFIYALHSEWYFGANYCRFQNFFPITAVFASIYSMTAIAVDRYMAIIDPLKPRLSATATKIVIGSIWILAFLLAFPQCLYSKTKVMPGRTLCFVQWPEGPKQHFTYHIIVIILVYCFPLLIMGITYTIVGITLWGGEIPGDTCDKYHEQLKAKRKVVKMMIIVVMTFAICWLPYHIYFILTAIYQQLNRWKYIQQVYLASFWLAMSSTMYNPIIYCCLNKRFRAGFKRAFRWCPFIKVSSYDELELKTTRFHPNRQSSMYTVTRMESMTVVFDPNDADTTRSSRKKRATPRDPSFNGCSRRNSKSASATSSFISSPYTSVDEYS
Experimental: To determine the affinity to the B2-bradykinin receptor, CFMQ was compared to a diverse set of receptors and reference agents in an in vitro assay using cells from rat heart, urinary bladder, cerebral cortex, as well as human recombinant cells (CHO and HEK 293) and other cell lines. Each assay included a ligand at a specific concentration (concentration ranging from 0.007-10 nM), in addition to a non-specific ligand (concentration ranging from […]) for incubation periods ranging from 15 minutes to 6 hours at 4°-37° C. The specific binding to the receptors was defined as the difference between the total binding and the nonspecific binding, determined in the presence of an excess of unlabeled CFMQ. The concentration causing a half-maximal inhibition of control specific binding (IC50 values) and inhibition constants (Ki) were determined, and each reference compound was within the accepted limits of the historic average (±0.5 log units).

[2] = test system: BK-induced human umbilical vein contractions; test: cells; details: Homo sapiens, 0.5 h; 30 minute incubation, BK-induced contractions; read-out: EC50, umbilical vein assay
Experimental: The inhibition effect of CFMQ on bradykinin induced […] was examined in an ex vivo functional assay of human umbilical vein contraction, which is considered a gold standard for bradykinin activity measurements. […] Firazyr®). Following a 30 minute incubation, BK-induced vein contractions were initiated in a cumulative manner (final concentration of 10 μM), followed by maximal calibration contraction induction by 10 μM serotonin. The tension increase for each dose response was calculated in relation to the (maximal) response towards serotonin, graphed as a dose-response curve and used to calculate an effective concentration at 50% (EC50) value (FIG. 6)

[3] = female, beagle, dog, plasma, extrapolated to t = 0

Cc1cc(Cl)c(COc2cccc3c(-n4cc(F)cn4)cc(C)nc23)c(Cn2cccc(C#N)c2=O)n1 [CFMQ, 1-((4-Chloro-3-(((4-(4-fluoro-1H-pyrazol-1-yl)-2-methylquinolin-8-yl)oxy)methyl)-6-methylpyridin-2-yl)methyl)-2-oxo-1,2-dihydropyridine-3-carbonitrile]
clearance as % of liver blood flow in dog (1.85 L/hr/kg) [1]: approximately 14% | AUC(0-inf) ([1]; female, beagle, dog, plasma): 5270 ng·h/mL | AUC(0-t) ([1]; female, beagle, dog, plasma): 5160 ng·h/mL | clearance ([1]; female, beagle, dog, plasma): 4.17 mL/min/kg | half-life ([1]; female, beagle, dog, plasma): 2.69 h | concentration at 0 hr ([1]; female, beagle, dog, plasma, 0 hr, read-out: Average Concentration of HGT3711): 0 ng/mL | concentration at 0.083 hr ([1]; female, beagle, dog, plasma, 0.083 hr, read-out: Average Concentration of HGT3711): 1840 ng/mL | concentration at 0.25 hr ([1]; female, beagle, dog, plasma, 0.25 hr, read-out: Average Concentration of HGT3711): 1320 ng/mL | concentration at 0.5 hr ([1]; female, beagle, dog, plasma, 0.50 hr, read-out: Average Concentration of HGT3711): 1070 ng/mL | concentration at 1 hr ([1]; female, beagle, dog, plasma, 1.0 hr, read-out: Average Concentration of HGT3711): 717 ng/mL | concentration at 4 hr ([1]; female, beagle, dog, plasma, 4.0 hr, read-out: Average Concentration of HGT3711): 377 ng/mL | concentration at 8 hr ([1]; female, beagle, dog, plasma, 8.0 hr, read-out: Average Concentration of HGT3711): 180 ng/mL | C0 [1, 3]: 2180 ng/mL | Tmax [1, 3]: 0 h | Vd ([1]; female, beagle, dog, plasma, read-out: Vss): 0.75 L/kg | IC50 (NK3 (h)): 1100 nM | Ki (NK3 (h)): 2700 nM | nH (NK3 (h)): 1.1 | inhibition at 10 µM (NK3 (h); CFMQ at 10 μM): 53% | EC50 [2]: 7.3 nM

— US20160030416A1, “METHODS OF TREATING B2-BRADYKININ RECEPTOR MEDIATED ANGIOEDEMA” (SHIRE HUMAN GENETIC THERAPIES, INC., priority 2013, published 2016)
